Results reported in patent US20250387481A1, “PRE-TREATED T CELLS FOR USE AS A MEDICAMENT” (STICHTING HET NEDERLANDS KANKER INSTITUUT-ANTONI VAN …, priority 2022, published 2025).

Tests used:
KB1P tumors = assay: Drug treatment in vivo of mice bearing KB1P tumors; design: species or system mouse
Protocol: For tumor generation, tumor organoids were transplanted into the 4th mammary fat pad of FVB female mice. Rimadyl (0.067 mg/ml, Zoetis) was administered to mice in the drinking water from 24 h before surgery and for 48 h after surgery. Mice were also treated with temgesic (0.1 mg/kg, Indivior Europe Limited), 1 hr before and 12 h after surgery. Mice were anesthetized with isoflurane (2%, v/v) and their eyes were covered with duratears (Alcon). About 100,000 single cells derived from KB1P organoids or 200,000 single cells derived from MMTV-PyMT organoids were injected in 30 μl of BME (Amsbio, Cat. No. 3533-005-02). Mice were weighed and monitored three times a week after transplantation of tumor organoids. Tumor volume was measured with calipers three times weekly. The researcher performing the measurement of tumor volume was blinded to the treatment group. For survival experiments, endpoint was reached when tumor reached 2000 mm3. For specific experiments, reference is made to the schematic representations of treatment timelines depicted in the figures.
Once tumors were established and reached a size of ˜7×7 mm, mice were randomized into treatment groups with the following drug dosages and timeline: • AC+T treatment: every 14 days, cyclophosphamide (144 mg/kg, administered via intraperitoneal injection), doxorubicin (5 mg/kg, administered via intravenous injection) and docetaxel (25 mg/kg, resuspended in acetonitrile containing 0.1% acetic acid, administered via intravenous injection). Doxorubicin hydrochloride (Adriamycin) and cyclophosphamide (C), when combined in a treatment, are herein referred to as “AC”. Taxanes, as broadly described and disclosed herein, are referred to as “T”. In one example, said taxane is docetaxel. • AC treatment: every 14 days, cyclophosphamide (144 mg/kg, administered via intraperitoneal injection) and doxorubicin (5 mg/kg administered via intravenous injection). • Docetaxel treatment: every 14 days, docetaxel (25 mg/kg, re-suspended in acetonitrile containing 0.1% acetic acid and administered via intravenous injections). • Vehicle control for chemotherapy: every 14 days, the same volume of the vehicle as the corresponding chemotherapy was administered to mice. […]

MMTV-PyMT organoids = assay: Co-culture of pre-treated splenic T cells with MMTV-PyMT organoids (MTT, cleaved-caspase 3); format: cell-based, mouse; details: CD4 or CD8 T cells pre-treated with docetaxel
Protocol: Preparation of T cells: T cells isolated from mouse spleens or from mouse mammary tumors were cultured in Roswell Park Memorial Institute (RPMI) 1640 Medium (Thermo Fisher Scientific, Cat. No. 21875034) containing FBS (10%, Thermo Fisher Scientific, Cat. No. A4766801), Penicillin/streptomycin (10,000 U/ml; Thermo Fisher Scientific, Cat. No. 15140-122), IL2 (Thermo Fisher Scientific, Cat. No. PMC0025), β-mercaptoethanol (50 μmol/L) and Ultraglutamine (2 mmol/L, Lonza, Cat. No. BE17-605E/U1). T cells were kept in 20% O2, 5% CO2 and at 37 degrees Celsius
In order to assess the direct effects of docetaxel on T cell activation for T cells isolated from the spleen, T cells were cultured in the absence of CD3 and CD28 antibodies.
For T cells isolated from mouse mammary tumors, T cells were directly co-cultured with tumor organoids after FACS isolation. For T cells isolated from the spleen, T cells were treated for 72 h with PBS or with docetaxel (docetaxel 10 nmol/L), in the presence or absence of an LCKi (10 μmol/L, Merck Millipore, Cat. No. 213743-31-8). To evaluate the docetaxel-specificity of our observations, T cells were treated with paclitaxel 10 nmol/L or carboplatin 50 μmol/L for 72 h. […]
Following co-culture, medium was removed, and cultures were washed in PBS to remove T cells. […] Plates were read with a 565 nm wavelength. […]

CC(=O)O[C@@]12CO[C@@H]1C[C@H](O)[C@@]1(C)C(=O)[C@H](O)C3=C(C)[C@@H](OC(=O)[C@H](O)[C@@H](NC(=O)OC(C)(C)C)c4ccccc4)C[C@@](O)([C@@H](OC(=O)c4ccccc4)[C@H]21)C3(C)C [docetaxel]
anti-tumor effects of docetaxel (survival) upon T cell depletion (KB1P tumors; depletion of CD4 alone, CD8 alone or both): abrogated the anti-tumor effects
tumor outgrowth (KB1P tumors; docetaxel 25 mg/kg intravenous every 14 days vs vehicle): delayed tumor outgrowth
CD4 and CD8 T cell infiltration (immunohistochemistry) (KB1P tumors; docetaxel vs vehicle): enhanced CD4 and CD8 T cell infiltration
accumulation of mitotic figures in tumors (KB1P tumors; tumors isolated 24 h after the second docetaxel administration): did not observe an accumulation of mitotic figures
T cell-mediated killing in presence or absence of LCKi (MMTV-PyMT organoids): TCR-independent increase of T cell-mediated killing
